Source: patent US12435061B2 (priority 2020, dated 2025)
Read-outs that look alike come from different tables or passages of the source.

Target: hTRPV3 (Homo sapiens (Human), UniProt Q8NET8)
Experiment: Whole-cell patch clamp, hTRPV3 Phase 1 / Phase 2 currents
Assay type: cell-based
Outline: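 Whole-cell recordings on induced TRPV3 cells replated on coverslips, held at −40 mV with 400 ms ramps from −120 to +100 mV every 5 s; currents read at −80 and +80 mV. Ringer's external solution; current activated by heating to ≥28 °C or 20 μM 2-APB.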

[1] = Phase 1 current, inward, whole-cell patch clamp, read-out: hTRPV3 Patch P1 Inwd
[2] = Phase 1 current, read-out: hTRPV3 (nM) (Phase 1)
[3] = Phase 2 current, inward, whole-cell patch clamp, read-out: hTRPV3 Patch P2 Inwd
[4] = Phase 2 current, read-out: hTRPV3 (nM) (Phase 2)

Chain of hTRPV3 (Q8NET8 whole entry): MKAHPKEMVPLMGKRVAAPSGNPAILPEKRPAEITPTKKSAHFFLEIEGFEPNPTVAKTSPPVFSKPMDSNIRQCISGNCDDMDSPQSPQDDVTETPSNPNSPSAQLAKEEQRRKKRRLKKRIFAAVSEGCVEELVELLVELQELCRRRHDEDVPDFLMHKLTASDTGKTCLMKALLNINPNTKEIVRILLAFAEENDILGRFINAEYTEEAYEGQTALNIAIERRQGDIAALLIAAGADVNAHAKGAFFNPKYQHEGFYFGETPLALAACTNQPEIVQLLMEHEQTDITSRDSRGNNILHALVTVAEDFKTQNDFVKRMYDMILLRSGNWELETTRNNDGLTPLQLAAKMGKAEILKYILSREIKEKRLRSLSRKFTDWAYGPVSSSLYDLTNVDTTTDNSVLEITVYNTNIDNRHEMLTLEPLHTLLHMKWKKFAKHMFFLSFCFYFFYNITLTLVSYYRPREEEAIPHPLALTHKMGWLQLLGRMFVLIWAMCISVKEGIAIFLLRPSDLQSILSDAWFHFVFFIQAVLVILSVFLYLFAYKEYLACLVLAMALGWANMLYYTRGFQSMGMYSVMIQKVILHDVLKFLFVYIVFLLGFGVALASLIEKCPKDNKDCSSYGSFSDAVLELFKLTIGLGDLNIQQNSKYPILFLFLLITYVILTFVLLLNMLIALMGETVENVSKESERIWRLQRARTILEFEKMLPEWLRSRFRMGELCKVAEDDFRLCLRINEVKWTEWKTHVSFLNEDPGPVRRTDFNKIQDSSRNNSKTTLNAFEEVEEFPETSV

SMILES | IC50 [1] [nM] | IC50 [2] [nM] | IC50 [3] [nM] | IC50 [4] [nM] | hTRPV3 (nM) (Phase 1) (Phase 1 current)
OCCc1cc(C(O)c2cccc(Cl)c2)ccc1N1CC[C@H](Oc2ncccc2Cl)C1 (stereo partly drawn) [Compound 1-329, 2-(5-((3-chlorophenyl)(hydroxy)methyl)-2-((S)-3-(3-chloropyridin-2-yloxy)pyrrolidin-1-yl)phenyl)ethanol] | > 1000 | 3100 |  |  | 
CC(C)c1ccccc1Oc1ccc(N2CC[C@H](Oc3ncccc3F)C2)c(CCO)c1 [Compound 1-331, (S)-2-(2-(3-(3-fluoropyridin-2-yloxy)pyrrolidin-1-yl)-5-(2-isopropylphenoxy)phenyl)ethanol] | 10 to 100 | 28 |  |  | 
O=C(c1ccc(N2CC[C@H](Oc3ccccn3)C2)c(CO)c1)c1ccccc1Cl [Compound 1-332, (S)-(2-chlorophenyl)(3-(hydroxymethyl)-4-(3-(pyridin-2-yloxy)pyrrolidin-1-yl)phenyl) methanone] | > 1000 | > 3200 | > 1000 | > 3200 | 
OCc1cc(Oc2ccccc2F)ccc1N1CC[C@H](Oc2ccccn2)C1 [Compound 1-333] | 100 to 1000 | 207 | 100 to 1000 | 111 | 
OCCc1cc(Oc2ccccc2F)ccc1N1CC[C@H](Oc2ccccn2)C1 [Compound 1-334] | 100 to 1000 | 289 | 100 to 1000 | ~243 | 
CCc1ccccc1Oc1ccc(N2CC[C@H](Oc3ccccn3)C2)c(CCO)c1 [Compound 1-335] | 10 to 100 | 66.3 |  |  | 
COc1ccccc1Oc1ccc(N2CC[C@H](Oc3ccc(F)cn3)C2)c(CO)c1 [Compound 1-336, (S)-(2-(3-(5-fluoropyridin-2-yloxy)pyrrolidin-1-yl)-5-(2-methoxyphenoxy)phenyl)methanol] | 100 to 1000 | 329 | 100 to 1000 | 384 | 
CN(C(=O)c1ccc(N2CC[C@H](Oc3ncccc3Cl)C2)c(CCO)c1)c1ccccc1 [Compound 1-337, (S)-4-(3-(3-chloropyridin-2-yloxy)pyrrolidin-1-yl)-3-(2-hydroxyethyl)-N-methyl-N-phenylbenzamide] | > 1000 | > 3200 |  |  | 
OCc1cc(C(O)c2ccccc2Cl)ccc1N1CC[C@H](Oc2ccccn2)C1 (stereo partly drawn) [Compound 1-338, (2-chlorophenyl)(3-(hydroxymethyl)-4-((S)-3-(pyridin-2-yloxy)pyrrolidin-1-yl)phenyl)methanol] | 100 to 1000 | 196 |  |  | 
COc1ccccc1Oc1ccc(N2CC[C@H](Oc3ccccn3)C2)c(CO)c1 [Compound 1-339, (S)-(5-(2-methoxyphenoxy)-2-(3-(pyridin-2-yloxy)pyrrolidin-1-yl)phenyl)methanol] | 100 to 1000 | 521 |  |  | 
COCc1ccccc1Oc1ccc(N2CC[C@H](Oc3ccc(F)cn3)C2)c(CCO)c1 [Compound 1-341, (S)-2-(2-(3-(5-fluoropyridin-2-yloxy)pyrrolidin-1-yl)-5-(2-(methoxymethyl)phenoxy)phenyl)ethanol] | 100 to 1000 | 877 | 100 to 1000 | 748 | 
CCc1ccccc1S(=O)(=O)c1ccc(N2CC[C@H](Oc3ncccc3Cl)C2)c(CCO)c1 [Compound 1-342] |  |  | > 1000 |  | 
CC(=O)c1cc(F)ccc1Oc1ccc(N2CC[C@H](Oc3ccccn3)C2)c(CO)c1 [Compound 1-343] | 100 to 1000 | 199 |  |  | 
OCc1cc(Oc2ccc(Cl)c(Cl)c2)ccc1N1CC[C@H](Oc2ccccn2)C1 [Compound 1-344] | 10 to 100 | 65.3 |  |  | 
COc1ccccc1Oc1ccc(N2CC[C@H](Oc3ccc(C)cn3)C2)c(CO)c1 [Compound 1-345, (S)-(5-(2-methoxyphenoxy)-2-(3-(5-methylpyridin-2-yloxy)pyrrolidin-1-yl)phenyl)methanol] | > 1000 | ~2450 |  |  | 
COc1ccccc1Oc1ccc(N2CC[C@H](Oc3ncccc3F)C2)c(CO)c1 [Compound 1-346, (S)-(2-(3-(3-fluoropyridin-2-yloxy)pyrrolidin-1-yl)-5-(2-methoxyphenoxy)phenyl)methanol] | 100 to 1000 | 612 |  |  | 
COC(C)c1ccccc1Oc1ccc(N2CC[C@H](Oc3ccc(F)cn3)C2)c(CCO)c1 (stereo partly drawn) [Compound 1-347, 2-(2-((S)-3-(5-fluoropyridin-2-yloxy)pyrrolidin-1-yl)-5-(2-(1-methoxyethyl)phenoxy)phenyl)ethanol] | 100 to 1000 | 220 | 100 to 1000 | 198 | 
COCc1ccccc1Oc1ccc(N2CC[C@H](Oc3ccccn3)C2)c(CCO)c1 [Compound 1-348, (S)-2-(5-(2-(methoxymethyl)phenoxy)-2-(3-(pyridin-2-yloxy)pyrrolidin-1-yl)phenyl) ethanol] | > 1000 | > 3200 |  |  | 
COCc1ccccc1Oc1ccc(N2CC[C@H](Oc3ccc(C)cn3)C2)c(CCO)c1 [Compound 1-349, (S)-2-(5-(2-(methoxymethyl)phenoxy)-2-(3-(5-methylpyridin-2-yloxy)pyrrolidin-1-yl)phenyl)ethanol] | 100 to 1000 | 908 |  |  | 

SMILES | IC50 [1] [nM] | IC50 [2] [nM] | IC50 [3] [nM] | IC50 [4] [nM] | hTRPV3 (nM) (Phase 1) (Phase 1 current)
COCc1ccccc1Oc1ccc(N2CC[C@H](Oc3ncccc3C)C2)c(CCO)c1 [Compound 1-350, (S)-2-(5-(2-(methoxymethyl)phenoxy)-2-(3-(3-methylpyridin-2-yloxy)pyrrolidin-1-yl)phenyl)ethanol] | 100 to 1000 | 311 |  |  | 
COCc1ccccc1Oc1ccc(N2CC[C@H](Oc3ncccc3F)C2)c(CCO)c1 [Compound 1-351, (S)-2-(2-(3-(3-fluoropyridin-2-yloxy)pyrrolidin-1-yl)-5-(2-(methoxymethyl)phenoxy)phenyl)ethanol] | 100 to 1000 | 461 |  |  | 
CCc1ccccc1Oc1ccc(N2CC[C@H](Oc3ccc(C#N)cn3)C2)c(CO)c1 [Compound 1-352] | 100 to 1000 | 974 |  |  | 
CC(C)c1ccccc1Oc1ccc(N2CC[C@H](Oc3ccc(C#N)cn3)C2)c(CO)c1 [Compound 1-353] | 10 to 100 | 26.8 |  |  | 
OCCc1ccc(C(O)c2ccccc2Cl)cc1N1CC[C@H](Oc2ncccc2Cl)C1 (stereo partly drawn) [Compound 1-354, 2-(4-((2-chlorophenyl)(hydroxy)methyl)-2-((S)-3-(3-chloropyridin-2-yloxy)pyrrolidin-1-yl)phenyl)ethanol] | > 1000 | 1010 |  |  | 
COC(C)c1ccccc1Oc1ccc(N2CC[C@H](Oc3ccc(C)cn3)C2)c(CCO)c1 (stereo partly drawn) [Compound 1-355, 2-(5-(2-(1-methoxyethyl)phenoxy)-2-((S)-3-(5-methylpyridin-2-yloxy)pyrrolidin-1-yl)phenyl)ethanol] | 100 to 1000 | 173 |  |  | 
N#Cc1cccc(C(O)c2ccc(N3CC[C@H](Oc4ncccc4Cl)C3)c(CCO)c2)c1 (stereo partly drawn) [Compound 1-356, 3-((4-((S)-3-(3-chloropyridin-2-yloxy)pyrrolidin-1-yl)-3-(2-hydroxyethyl)phenyl)(hydroxy)methyl)benzonitrile] | > 1000 | > 3200 |  |  | 
COC(C)c1ccccc1Oc1ccc(N2CC[C@H](Oc3ccccn3)C2)c(CCO)c1 (stereo partly drawn) [Compound 1-357, 2-(5-(2-(1-methoxyethyl)phenoxy)-2-((S)-3(pyridin-2-yloxy)pyrrolidin-1-yl)phenyl)ethanol] | 100 to 1000 | 312 |  |  | 
CCc1c(Oc2ccc(F)c(CO)c2)ncnc1N1CC[C@H](Oc2ncccc2Cl)C1 [Compound 1-359, (S)-(5-(6-(3-(3-chloropyridin-2-yloxy)pyrrolidin-1-yl)-5-ethylpyrimidin-4-yloxy)-2-fluorophenyl)methanol] |  |  |  |  | Agonist (Phase 1)
O=C(c1ccc(CCO)c(N2CC[C@H](Oc3ncccc3Cl)C2)c1)c1ccccc1Cl [Compound 1-360, (S)-(2-chlorophenyl)(3-(3-(3-chloropyridin-2-yloxy)pyrrolidin-1-yl)-4-(2-hydroxyethyl)phenyl)methanone] | 100 to 1000 | 770 |  |  | 
CCc1ccccc1Oc1ccc(N2CC[C@H](Oc3ccc(C#N)cn3)C2)c(CCO)c1 [Compound 1-361] | 100 to 1000 | 117 |  |  | 
CC(C)c1ccccc1Oc1ccc(N2CC[C@H](Oc3ccc(C#N)cn3)C2)c(CCO)c1 [Compound 1-362] | 10 to 100 | 61.2 |  |  | 
COc1ccccc1N1CCC(Nc2ncc(C(F)(F)F)cc2Cl)C1 (stereo not drawn) [Compound 1-370, 3-chloro-N-(1-(2-methoxyphenyl)pyrrolidin-3-yl)-5-(trifluoromethyl)pyridin-2-amine] | > 1000 |  |  |  | 
Cc1ccccc1N1CCC(Nc2ncc(C(F)(F)F)cc2Cl)C1 (stereo not drawn) [Compound 1-371, 3-chloro-N-(1-o-tolylpyrrolidin-3-yl)-5-(trifluoromethyl)pyridin-2-amine] | > 1000 |  | > 1000 |  | 
NC(=O)c1cc(-c2ccccc2)ccc1N1CC[C@H](Nc2ccc(C(F)(F)F)cn2)C1 [Compound 1-372, (S)-4-(3-(5-(trifluoromethyl)pyridin-2-ylamino)pyrrolidin-1-yl)biphenyl-3-carboxamide] | > 1000 |  | > 1000 |  | 
NC(=O)c1cc(-c2ccccc2)ccc1N1CC[C@H](Nc2ncccc2Cl)C1 [Compound 1-373, (S)-4-(3-(3-chloropyridin-2-ylamino)pyrrolidin-1-yl)biphenyl-3-carboxamide] |  |  | 100 to 1000 | 669 | 
NC(=O)c1cc(-c2ccccc2)cnc1N1CC[C@H](Nc2ccc(C(F)(F)F)cn2)C1 [Compound 1-374, (S)-5-phenyl-2-(3-(5-(trifluoromethyl)pyridin-2-ylamino)pyrrolidin-1-yl)nicotinamide] | > 1000 | > 3200 | > 1000 | > 3200 | 
NC(=O)c1cc(-c2ccccn2)ccc1N1CC[C@H](Nc2ccc(C(F)(F)F)cn2)C1 [Compound 1-376, (S)-5-(pyridin-2-yl)-2-(3-(5-(trifluoromethyl)pyridin-2-ylamino)pyrrolidin-1-yl)benzamide] | > 1000 | > 3200 | > 1000 | > 3200 | 
